According to patent publication US7956059B2, “Aliphatic amide and ester pyrazinoylguanidine sodium channel blockers” (Parion Sciences, Inc., priority 2004, dated 2011):
Several values for one entry are separate records, joined by “and”; a condition that tells them apart may be missing. Equal values may be shown once. Where a name gives a salt, the structure may show the parent alone.

With `NC(=NC(=O)c1nc(Cl)c(N)nc1N)NCCCCCCCCCCCC(=O)Nc1ncc[nH]1` [ALB 27070, 12-[N′-(3,5-Diamino-6-chloropyrazine-2-carbonyl)guanidino]dodecanoic acid (1H-imidazol-2-yl)amide] the melting point was 102 to 104 °C. `N=C(NCCCCCCCCCCCC(=O)N1CCNCC1)NC(=O)c1nc(Cl)c(N)nc1N` (as salt: hydrochloride) [ALB 27069, N-(3,5-Diamino-6-chloropyrazine-2-carbonyl)-N′-(12-oxo-12-piperazin-1-yl-dodecyl)guanidine dihydrochloride] showed a melting point of 148 to 150 °C. With `N=C(N)N(CCCCCCCCCCC(=O)O)C(=O)c1nc(Cl)c(N)nc1N` [ALB 26795, 11-[N-(3,5-Diamino-6-chloropyrazine-2-carbonyl)guanidino]undecanoic acid] the melting point was 181 to 191 °C. With `CN(C)CCCNC(=O)CCCCCCCCCCN(C(=N)N)C(=O)c1nc(Cl)c(N)nc1N` (as salt: salt) [ALB 27160, 11-[N-(3,5-Diamino-6-chloropyrazine-2-carbonyl)guanidino]undecanoic acid (3-dimethylaminopropyl)amide] the melting point was 52 to 56 °C. In the case of `N=C(NCCCCCCCCCCCC(=O)O)NC(=O)c1nc(Cl)c(N)nc1N` [ALB 26799, 12-[N′-(3,5-diamino-6-chloropyrazine-2-carbonyl)guanidino]-dodecanoic acid], the melting point is reported as 194 to 196 °C and 192 to 194 °C. `CN(C)CCCNC(=O)CCCCCCCCCCCNC(N)=NC(=O)c1nc(Cl)c(N)nc1N` [ALB 26982, 12-[N′-(3,5-Diamino-6-chloropyrazine-2-carbonyl)guanidino]dodecanoic acid (3-dimethylaminopropyl)amide] showed a melting point of 82 to 84 °C. `N=C(N)N(CCCCCCCCCCC(N)=O)C(=O)c1nc(Cl)c(N)nc1N` [ALB 27317, 11-[N-(3,5-Diamino-6-chloropyrazine-2-carbonyl)guanidino]undecanoic acid amide] gave a melting point of 69 to 72 °C.
